The text below walks through data of US4454139A, “α2 -Adrenoceptor antagonistic benzoquinolizines” (John Wyeth & Brother, Limited, priority 1980, dated 1984).

Assay [1] relates to rats rendered hypertensive by implantation of desoxycorticosterone acetate. The assay is described as follows: hypotensive activity in rats rendered hypertensive by implantation of desoxycorticosterone acetate. The format is in vivo, rat.
Assay [2] deals with T1, α2 (presynaptic α)-adrenoceptor (Rattus norvegicus, UniProt P22909).
T1 construct: from tissue; host or cells: rat vas deferens (desheathed, field stimulated)
T1 sequence (P22909 1-465): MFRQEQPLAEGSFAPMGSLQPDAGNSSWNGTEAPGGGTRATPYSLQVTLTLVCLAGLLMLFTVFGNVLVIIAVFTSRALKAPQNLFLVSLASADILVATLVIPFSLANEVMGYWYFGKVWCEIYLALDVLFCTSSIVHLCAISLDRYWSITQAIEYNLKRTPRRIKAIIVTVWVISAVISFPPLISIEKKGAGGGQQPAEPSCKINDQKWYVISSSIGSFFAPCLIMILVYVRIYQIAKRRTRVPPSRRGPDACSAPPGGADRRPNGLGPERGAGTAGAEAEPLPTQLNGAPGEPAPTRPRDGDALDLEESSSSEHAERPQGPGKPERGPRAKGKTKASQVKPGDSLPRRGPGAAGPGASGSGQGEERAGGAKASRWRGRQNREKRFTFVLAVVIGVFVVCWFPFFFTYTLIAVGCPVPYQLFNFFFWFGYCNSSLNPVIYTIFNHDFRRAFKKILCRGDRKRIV
Briefly: α2-adrenoceptor antagonistic activity on the rat field stimulated vas deferens preparation (clonidine agonist). The format is cell-based. Conditions: clonidine as agonist, Arunlakshana & Schild, read-out: pA2 (α2) (converted). Here is the method: The compounds of the invention were tested for their α2 -adrenoceptor antagonistic activity on the rat field stimulated vas deferens preparation using a modification of the method of Drew, Eur.J.Pharmac., 1977, 42, 123-130. The procedure is described below. […] from sexually mature rats were suspended in a 6 ml organ bath in Krebs solution at 37° and bubbled with 5% CO2 in oxygen. Platinum ring electrodes were positioned above and below the tissue for field stimulation, the stimulus parameters being 0.1 Hz 1 ms pulse width at supramaximal voltage. Twitch responses were recorded isotonically with a 0.5 g loading. […] After washing out clonidine, the twitch response quickly recovered and an antagonist was then introduced into the Krebs reservoir. Clonidine concentration-response curves were repeated 90 min after introduction of the antagonist. The concentration of clonidine producing 50% inhibition of twitch before and after introduction of antagonist were obtained and the dose-ratio for clonidine was calculated. Various concentrations of the antagonists were used. […] Chemother., 1959, 14, 48-58 and the values of pA2 and slope were calculated.

Assay [3] relates to hyperglycaemia induced by the α2 agonist clonidine. The assay is described as follows: inhibition of clonidine-induced hyperglycaemia in rats. Format: in vivo, rat. Conditions: 10 mg/kg, clonidine 15 μg/kg subcutaneous.
In another assay the test system is human blood platelets. The assay is described as follows: inhibition of adrenaline-induced aggregation in vitro of human blood platelets. The format is cell-based.
Assay [4] deals with T2, postsynaptic (α1) α-adrenoceptor (Rattus norvegicus, UniProt P43140).
T2 construct: the isolated anococcygeus muscle of the rat; from tissue; host or cells: rat anococcygeus muscle (male rats, 250-360 g)
T2 sequence (P43140 1-466): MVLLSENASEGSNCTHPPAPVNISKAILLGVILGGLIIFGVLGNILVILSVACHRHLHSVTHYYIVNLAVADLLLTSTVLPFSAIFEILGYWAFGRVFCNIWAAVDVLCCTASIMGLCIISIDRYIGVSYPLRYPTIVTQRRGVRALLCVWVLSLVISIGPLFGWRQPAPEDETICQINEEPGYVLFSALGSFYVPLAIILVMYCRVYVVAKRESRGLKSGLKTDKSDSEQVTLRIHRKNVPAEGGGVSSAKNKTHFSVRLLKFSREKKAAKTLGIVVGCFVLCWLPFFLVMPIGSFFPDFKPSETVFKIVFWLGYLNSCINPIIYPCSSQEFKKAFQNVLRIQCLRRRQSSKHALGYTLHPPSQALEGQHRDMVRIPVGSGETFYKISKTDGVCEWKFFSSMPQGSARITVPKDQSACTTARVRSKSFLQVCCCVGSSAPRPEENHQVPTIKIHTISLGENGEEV
Briefly: postsynaptic (α1) antagonistic activity on the isolated anococcygeus muscle of the rat (phenylephrine or methoxamine agonist). The format is cell-based. The following applies: rat anococcygeus muscle; phenylephrine or methoxamine as agonist; α1; read-out: pA2 (postsynaptic) (converted). The source says:
(§1) The postsynaptic(α1)antagonistic activity can be evaluated by a number of different methods. One method involves assessing the activity on the isolated anococcygeus muscle of the rat. The method is based on that of Gillespie, Br.J.Pharmac., 1972, 45, 404-416. In the procedure male rats (250-360 g) are killed by a blow on the head and bled. The two anococcygeus muscles are removed from their position in the midline of the pelvic cavity, where they arise from the upper coccygeal vertebrae. The muscles are suspended in 5 ml organ baths in Krebs solution containing 10^-4 M ascorbic acid, to prevent drug oxidation. The tissues are gassed with a 95% oxygen, 5% CO2 mixture and maintained at 37°. Longitudinal muscle contractions are recorded using isotonic transducers. Cumulative dose response curves are then obtained to phenylephrine or in some cases methoxamine, both agents being postsynaptic alpha adrenoceptor agonists. The concentration range of phenylephrine or methoxamine used is 0.02 to 0.8 μg.ml^-1. The agonist is then washed from the bath and the test drug added to the bathing medium at a concentration of 10^-6 M. After 30 min. equilibration with the test drug a further agonist dose response curve is obtained. The washing, equilibration and agonists dosing procedures are then repeated using 10^-5 M and 10^-4 M solutions of the test drug. Estimates of the pA2 value for the test drug as an antagonist of phenylephrine or methoxamine were made from the agonist dose-ratios using the method of Arunlakshana & Schild, Br.J.Pharmac.Chemother., 1959, 14, 48-58.

Assay [5] deals with postsynaptic (α1) α-adrenoceptor. Described as above. Format: cell-based.
From the text: as §1

For the molecule `CN([C@@H]1CCN2CCc3ccccc3[C@@H]2C1)S(C)(=O)=O` (relative stereo) [A, N-Methyl-N-(1,3,4,6,7,11bα-hexahydro-2H-benzo[a]quinolizin-2β-yl)methanesulphonamide], the hypotensive activity entry in assay [1] is listed as “do not possess substantial hypotensive activity”. The Kb was 20 nM in assay [2] and 1120 nM in assay [4]. Further, the “inhibition of the hyperglycaemia induced by clonidine” value in assay [3] is reported as “inhibited the hyperglycaemia”. Also, the “inhibition of the aggregation in vitro of human blood platelets induced by adrenaline” value with human blood platelets is “inhibit the aggregation”. Further, in assay [5], the α2 selectivity is listed as 56.
